Results taken from patent EP4678635A1, “CRYSTAL FORM OF NIROGACESTAT DIHYDROBROMATE, AND PREPARATION METHOD THEREFOR AND USE THEREOF” (Crystal Pharmaceutical (Suzhou) Co., Ltd., priority 2023, dated 2024).
In brackets after ≈: the same amount, converted by molar mass. Where two headings read alike, the source gives them in different places.

Key:
Assay type in all cases: physicochemical
Bulk and tapped density = details: for Bulk density: about 500 mg in 5-mL graduated cylinder, before tapping; for Tapped density: tapped 1250 times
Experimental: About 500 mg of sample was gently loaded into a 5-mL graduated cylinder to measure the bulk volume before tapping. The sample was then tapped 1250 times on a ZS-2E tap density tester to achieve a tapped state, and the tapped volume was recorded. The bulk density ρ0 and tapped density ρf were calculated accordingly.

[1] = Kinetic solubility in FaSSIF and FeSSIF
Experimental: Table 2 [table] When solubility test is used to predict the in vivo performance of a drug, it is critical to simulate in vivo conditions as closely as possible. For oral drugs, FaSSIF and FeSSIF can be used to simulate the conditions in vivo and predict the effect of eating. Solubilities in these media are closer to those in vivo. Appropriate amounts of Form CSVI were suspended in FaSSIF and FeSSIF at 37 °C. After equilibration for 0.5 h, the suspensions were filtered and the concentration (mg/mL) of Compound I in each filtrate was measured by HPLC. […]

[2] = Compressibility (tensile strength of tablets, manual tablet press); details: about 60 mg, Φ6mm round tooling, pressure of 3 kN, 24 h at RT; T=2H/πDL
Experimental: (§1) Tablets were prepared by an ENERPAC manual tablet press. About 60 mg of Form CSV and the prior art Form A were separately added to Φ6mm round tooling punches and compressed into tablets under a pressure of 3 kN. The tablets were left at RT for 24 h to allow complete elastic recovery. The diameter (D) and thickness (L) were measured using a vernier caliper, and their radial crushing strength (hardness, H) was determined using a tablet hardness tester. The tensile strength (T) of the powders was calculated with the following formula: T=2H/πDL. […] Under a certain force, higher tensile strength indicates better compressibility.
as §1, with “CSVI” for “CSV”

[3] = Stability under mechanical force: ball milling, XRPD; details: ball milling at 500 rpm for 5 minutes
Experimental: An appropriate amount of Form CSV was subjected to ball milling at 500 rpm for 5 minutes using a ball mill. […]
An appropriate amount of Form CSVI was subjected to ball milling at 500 rpm for 5 minutes using a ball mill. […]

[4] = Stability under mechanical force: tableting under different pressures, XRPD; details: Φ6mm round tooling punch
Experimental: An appropriate amount of Form CSV was compressed into tablets under different pressures with a Φ6mm round tooling punch. XRPD tests were conducted before and after compression. The test results are listed in Table 6, and the XRPD overlay is depicted in Figure 5.
An appropriate amount of Form CSVI was compressed into tablets under different pressures with a Φ6mm round tooling punch. XRPD tests were conducted before and after compression. The test results are listed in Table 10, and the XRPD overlay is depicted in Figure 12.

[5] = Storage stability (crystalline form by XRPD, purity by HPLC); details: for Purity (%): HPLC, initial purity 99.51; for Crystalline form / remains stable for at least / Solid form: sealed container; for Crystalline form / Solid form: XRPD; for Crystalline form: initial Form CSV; for Solid form: initial Form CSVI
Experimental: (§2) An appropriate amount of Form CSV was packaged in a sealed container and then stored under the conditions of 25 °C/60%RH, 40 °C/75%RH and 60 °C/75%RH, respectively. Crystalline form and purity were analyzed by XRPD and HPLC. The results are listed in Table 5, and the XRPD pattern overlay is depicted in Figure 4. […] Meanwhile, Form CSV remains stable for at least 2 months under 60 °C/75%RH condition, indicating Form CSV has good stability under stress condition as well.
as §2, with “CSVI” for “CSV”, “was” for “and purity were”, “XRPD.” for “XRPD and HPLC.”, “9,” for “5,”, “11.” for “4.”

Row | SMILES | average tensile strength [2] [MPa] | crystalline form before and after ball milling [3] | After tableting (crystalline form) ([4]; Pressure 5 kN) | After tableting (crystalline form) ([4]; Pressure 10 kN) | After tableting (crystalline form) ([4]; Pressure 20 kN) | remains stable for at least ([5]; 25 °C/60%RH) | remains stable for at least ([5]; 40 °C/75%RH) | remains stable for at least ([5]; 60 °C/75%RH) | further results
1 | CCC[C@H](N[C@H]1CCc2cc(F)cc(F)c2C1)C(=O)Nc1cn(C(C)(C)CNCC(C)(C)C)cn1 [Form A, (S)-2-(((S)-6,8-difluoro-1,2,3,4-tetrahydronaphthalen-2-yl)amino)-N-(1-(2-methyl-1-(neopentylamino)propan-2-yl)-1H-imidazol-4-yl) pentanamide, reference compound] | 0.37 |  |  |  |  |  |  |  | Bulk density (Bulk and tapped density; listed as The prior art Form A): 0.251 g/mL; Tapped density (Bulk and tapped density; listed as The prior art Form A): 0.282 g/mL; solubility at 0.5 h ([1]; fassif, solubility (concentration of Compound I in filtrate)): 4200 µg/mL (≈ 8.58 mM); solubility at 0.5 h ([1]; solubility (concentration of Compound I in filtrate)): 7500 µg/mL (≈ 15.3 mM)
2 | CCC[C@H](N[C@H]1CCc2cc(F)cc(F)c2C1)C(=O)Nc1cn(C(C)(C)CNCC(C)(C)C)cn1 [Form CSV, (S)-2-(((S)-6,8-difluoro-1,2,3,4-tetrahydronaphthalen-2-yl)amino)-N-(1-(2-methyl-1-(neopentylamino)propan-2-yl)-1H-imidazol-4-yl) pentanamide] | 0.55 | remained unchanged | Form CSV | Form CSV | Form CSV | at least 6 months | at least 6 months | at least 2 months | Bulk density (Bulk and tapped density): 0.422 g/mL; Tapped density (Bulk and tapped density): 0.506 g/mL; Purity (%) ([5]; 25 °C/60%RH, 6 months): 99.52%; Crystalline form ([5]; 25 °C/60%RH, 6 months): Form CSV; Purity (%) ([5]; 40 °C/75%RH, 6 months): 99.50%; Crystalline form ([5]; 40 °C/75%RH, 6 months): Form CSV; Purity (%) ([5]; 60 °C/75%RH, 2 months): 99.54%; Crystalline form ([5]; 60 °C/75%RH, 2 months): Form CSV
3 | CCC[C@H](N[C@H]1CCc2cc(F)cc(F)c2C1)C(=O)Nc1cn(C(C)(C)CNCC(C)(C)C)cn1 [Form CSVI, (S)-2-(((S)-6,8-difluoro-1,2,3,4-tetrahydronaphthalen-2-yl)amino)-N-(1-(2-methyl-1-(neopentylamino)propan-2-yl)-1H-imidazol-4-yl) pentanamide] | 0.907 | remained unchanged | Form CSVI | Form CSVI | Form CSVI | at least 8 months | at least 8 months | at least 2 months | solubility at 0.5 h ([1]; FeSSIF, 37 °C, equilibration for 0.5 h, HPLC, read-out: solubility (concentration of Compound I in filtrate)): 10100 µg/mL (≈ 20.6 mM); solubility at 0.5 h ([1]; fassif, 37 °C, equilibration for 0.5 h, HPLC, read-out: solubility (concentration of Compound I in filtrate)): 16100 µg/mL (≈ 32.9 mM); Solid form ([5]; 25 °C/60%RH, 8 months): Form CSVI; Solid form ([5]; 40 °C/75%RH, 8 months): Form CSVI; Solid form ([5]; 60 °C/75%RH, 2 months): Form CSVI
